In patent US20100222269A1, “IMPROVED DERIVATIVES OF AMYLIN” (priority 2007, published 2010):
Starred links: 1 amine or outer side, 2 acyl side, 3 side chain; linkers in the order of their positions; H or OH if unused. Positions of bridges follow the written chain, without caps; N, C: chain ends. Residues, ends and D or L forms follow the SMILES beside them. Groups on a side chain read outwards from the residue. *: point of attachment. X1 = O=C(CCCCCCCCCCCCCCCc1nnn[nH]1)NS(=O)(=O)CCCC(=O)*; C20 diacid = O=C(O)CCCCCCCCCCCCCCCCCCC(=O)*; C18 diacid = O=C(O)CCCCCCCCCCCCCCCCC(=O)*; γGlu = O=C(O)[C@H](CCC(=O)[*:2])N[*:1]; AEEA = NCCOCCOCC(=O)O

Target: T1, Amylin 3(a) receptor (human calcitonin receptor (CTa) with RAMP-3) (Homo sapiens, UniProt O60896+P30988)
T1 construct: expressed in transfected cells; host or cells: BHK570 (baby hamster kidney) cells, stably transfected, with CRE-luciferase reporter
Test: Amylin luciferase assay (CRE-luciferase reporter in BHK Amylin 3(a)//CRE-luc cells)
Format: cell-based
Settings: BHK570 cells with human calcitonin receptor (CTa), RAMP-3 and CRE-luciferase reporter; 4 hours incubation; read-out: Potency luciferase assay
Method in brief: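 BHK570 cells stably expressing human calcitonin receptor (CTa), RAMP-3 and a CRE-luciferase reporter, about 20.000 cells/well, were exposed to standard or sample for 4 h at 37° C in phenol-red-free DMEM with 10% FBS and 10 mM Hepes pH 7,4. Luminescence was read after 30 min with LucLite at room temperature.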

T1 sequence (O60896 24-148): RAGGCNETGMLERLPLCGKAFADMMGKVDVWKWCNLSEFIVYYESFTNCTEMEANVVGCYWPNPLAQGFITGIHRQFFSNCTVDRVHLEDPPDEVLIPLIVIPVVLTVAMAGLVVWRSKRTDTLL
T1 sequence (P30988 25-474): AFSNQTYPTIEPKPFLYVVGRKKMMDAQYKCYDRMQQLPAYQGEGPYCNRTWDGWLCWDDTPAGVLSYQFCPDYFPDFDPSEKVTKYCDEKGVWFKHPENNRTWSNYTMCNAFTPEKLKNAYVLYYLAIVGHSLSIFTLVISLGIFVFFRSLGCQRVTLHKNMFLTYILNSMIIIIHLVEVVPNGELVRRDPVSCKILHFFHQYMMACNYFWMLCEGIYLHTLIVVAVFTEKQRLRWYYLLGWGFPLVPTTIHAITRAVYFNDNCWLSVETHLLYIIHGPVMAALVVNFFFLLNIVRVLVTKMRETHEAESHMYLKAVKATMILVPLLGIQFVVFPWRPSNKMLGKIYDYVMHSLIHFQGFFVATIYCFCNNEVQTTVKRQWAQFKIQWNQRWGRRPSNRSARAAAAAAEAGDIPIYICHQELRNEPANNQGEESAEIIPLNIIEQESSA

Row | SMILES | EC50 [nM]
1 | CC(C)C[C@H](NC(=O)[C@H](CC(N)=O)NC(=O)[C@H](CCC(N)=O)NC(=O)[C@H](CO)NC(=O)[C@H](CO)NC(=O)[C@H](CCCNC(=N)N)NC(=O)[C@@H](NC(=O)[C@H](CC(C)C)NC(=O)[C@H](Cc1ccccc1)NC(=O)[C@H](CC(N)=O)NC(=O)[C@H](C)NC(=O)[C@H](CC(C)C)NC(=O)[C@H](CCCNC(=N)N)NC(=O)[C@H](CCC(N)=O)NC(=O)[C@@H](NC(=O)[C@H](C)NC(=O)[C@@H]1CSSC[C@H](NC(=O)[C@@H](N)CCCCN)C(=O)N[C@@H](CCCCNC(=O)CC[C@H](NC(=O)CCCCCCCCCCCCCCCCC(=O)O)C(=O)O)C(=O)N[C@@H]([C@@H](C)O)C(=O)N[C@@H](C)C(=O)N[C@@H]([C@@H](C)O)C(=O)N1)[C@@H](C)O)C(C)C)C(=O)NCC(=O)N1CCC[C@H]1C(=O)N[C@H](C(=O)N[C@@H](CC(C)C)C(=O)N1CCC[C@H]1C(=O)N1CCC[C@H]1C(=O)N[C@H](C(=O)N[C@@H](CC(N)=O)C(=O)N[C@H](C(=O)NCC(=O)N[C@@H](CO)C(=O)N[C@@H](CC(N)=O)C(=O)N[C@H](C(=O)N[C@@H](Cc1ccc(O)cc1)C(N)=O)[C@@H](C)O)C(C)C)[C@@H](C)O)C(C)C [Example 28, N-epsilon3-[(S)-4-Carboxy-4-(17-carboxyheptadecanoylamino)butyryl]-[Lys3,Arg18,Gln21,Leu23,Val26]-pramlintide (1-37)] (H-KCK([γGlu-C18 diacid])TATCATQRLANFLVRSSQNLGPVLPPTNVGSNTY-NH2; disulfide 2-7) | 0.04
2 | CC[C@H](C)[C@H](NC(=O)[C@@H]1CCCN1C(=O)CNC(=O)[C@H](Cc1ccccc1)NC(=O)[C@H](CC(N)=O)NC(=O)[C@H](CC(N)=O)NC(=O)[C@H](CO)NC(=O)[C@H](CO)NC(=O)[C@H](Cc1c[nH]cn1)NC(=O)[C@@H](NC(=O)[C@H](CC(C)C)NC(=O)[C@H](Cc1ccccc1)NC(=O)[C@H](CC(N)=O)NC(=O)[C@H](C)NC(=O)[C@H](CC(C)C)NC(=O)[C@H](CCCNC(=N)N)NC(=O)[C@H](CCC(N)=O)NC(=O)[C@@H](NC(=O)[C@H](C)NC(=O)[C@@H]1CSSC[C@H](NC(=O)[C@H](CCC(=O)O)NC(=O)[C@H](CCCNC(=N)N)NC(=O)[C@H](CCC(=O)O)NC(=O)[C@H](CCC(=O)O)NC(=O)CCCCCCCCCCCCCCCCCCC(=O)O)C(=O)N[C@@H](CC(N)=O)C(=O)N[C@@H]([C@@H](C)O)C(=O)N[C@@H](C)C(=O)N[C@@H]([C@@H](C)O)C(=O)N1)[C@@H](C)O)C(C)C)C(=O)N[C@@H](CC(C)C)C(=O)N1CCC[C@H]1C(=O)N1CCC[C@H]1C(=O)N[C@H](C(=O)N[C@@H](CC(N)=O)C(=O)N[C@H](C(=O)NCC(=O)N[C@@H](CO)C(=O)N[C@@H](CC(N)=O)C(=O)N[C@H](C(=O)N[C@@H](Cc1ccc(O)cc1)C(N)=O)[C@@H](C)O)C(C)C)[C@@H](C)O [Example 25, N-alpha-(19-carboxynonadecanoyl)-Glu-Glu-Arg-[Glu1]-pramlintide (1-37)] ({C20 diacid}-EERECNTATCATQRLANFLVHSSNNFGPILPPTNVGSNTY-NH2; disulfide 5-10; C-terminus assumed) | 0.08
3 | CC[C@H](C)[C@H](NC(=O)[C@@H]1CCCN1C(=O)CNC(=O)[C@H](Cc1ccccc1)NC(=O)[C@H](CC(N)=O)NC(=O)[C@H](CC(N)=O)NC(=O)[C@H](CO)NC(=O)[C@H](CO)NC(=O)[C@H](Cc1c[nH]cn1)NC(=O)[C@@H](NC(=O)[C@H](CC(C)C)NC(=O)[C@H](Cc1ccccc1)NC(=O)[C@H](CC(N)=O)NC(=O)[C@H](C)NC(=O)[C@H](CC(C)C)NC(=O)[C@H](CCCNC(=N)N)NC(=O)[C@H](CCC(N)=O)NC(=O)[C@@H](NC(=O)[C@H](C)NC(=O)[C@@H]1CSSC[C@H](NC(=O)[C@@H](N)CCCCN)C(=O)N[C@@H](CCCCNC(=O)COCCOCCNC(=O)CCCS(=O)(=O)NC(=O)CCCCCCCCCCCCCCCc2nnn[nH]2)C(=O)N[C@@H]([C@@H](C)O)C(=O)N[C@@H](C)C(=O)N[C@@H]([C@@H](C)O)C(=O)N1)[C@@H](C)O)C(C)C)C(=O)N[C@@H](CC(C)C)C(=O)N1CCC[C@H]1C(=O)N1CCC[C@H]1C(=O)N[C@H](C(=O)N[C@@H](CC(N)=O)C(=O)N[C@H](C(=O)NCC(=O)N[C@@H](CO)C(=O)N[C@@H](CC(N)=O)C(=O)N[C@H](C(=O)N[C@@H](Cc1ccc(O)cc1)C(N)=O)[C@@H](C)O)C(C)C)[C@@H](C)O [Example 30, N-epsilon3-[2-(2-{2-[4-(16-1H-tetrazol-5-yl-hexadecanoylsulfamoyl)butyrylamino]ethoxy}ethoxy)acetyl]-[Lys3]pramlintide (1-37)] (H-KCK([AEEA-X1])TATCATQRLANFLVHSSNNFGPILPPTNVGSNTY-NH2; disulfide 2-7; N-terminus and C-terminus assumed) | 0.1

Further lines, results first:

Row | EC50 [nM] | SMILES
4 | 0.07 | CC[C@H](C)[C@H](NC(=O)[C@@H]1CCCN1C(=O)CNC(=O)[C@H](Cc1ccccc1)NC(=O)[C@H](CC(N)=O)NC(=O)[C@H](CC(N)=O)NC(=O)[C@H](CO)NC(=O)[C@H](CO)NC(=O)[C@H](Cc1c[nH]cn1)NC(=O)[C@@H](NC(=O)[C@H](CC(C)C)NC(=O)[C@H](Cc1ccccc1)NC(=O)[C@H](CC(N)=O)NC(=O)[C@H](C)NC(=O)[C@H](CC(C)C)NC(=O)[C@H](CCCNC(=N)N)NC(=O)[C@H](CCC(N)=O)NC(=O)[C@@H](NC(=O)[C@H](C)NC(=O)[C@@H]1CSSC[C@H](NC(=O)[C@H](CCCNC(=N)N)NC(=O)[C@H](CCCCN)NC(=O)[C@H](CCC(=O)O)NC(=O)CCCCCCCCCCCCCCCCCCC(=O)O)C(=O)N[C@@H](CC(N)=O)C(=O)N[C@@H]([C@@H](C)O)C(=O)N[C@@H](C)C(=O)N[C@@H]([C@@H](C)O)C(=O)N1)[C@@H](C)O)C(C)C)C(=O)N[C@@H](CC(C)C)C(=O)N1CCC[C@H]1C(=O)N1CCC[C@H]1C(=O)N[C@H](C(=O)N[C@@H](CC(N)=O)C(=O)N[C@H](C(=O)NCC(=O)N[C@@H](CO)C(=O)N[C@@H](CC(N)=O)C(=O)N[C@H](C(=O)N[C@@H](Cc1ccc(O)cc1)C(N)=O)[C@@H](C)O)C(C)C)[C@@H](C)O [Example 51, N-alpha-(19-carboxynonadecanoyl)-Glu-Lys-[Arg1]-pramlintide (1-37)] ({C20 diacid}-EKRCNTATCATQRLANFLVHSSNNFGPILPPTNVGSNTY-NH2; disulfide 4-9; C-terminus assumed)
5 | 0.04 | CC[C@H](C)[C@H](NC(=O)[C@@H]1CCCN1C(=O)CNC(=O)[C@H](Cc1ccccc1)NC(=O)[C@H](CC(N)=O)NC(=O)[C@H](CC(N)=O)NC(=O)[C@H](CO)NC(=O)[C@H](CO)NC(=O)[C@H](Cc1c[nH]cn1)NC(=O)[C@@H](NC(=O)[C@H](CC(C)C)NC(=O)[C@H](Cc1ccccc1)NC(=O)[C@H](CC(N)=O)NC(=O)[C@H](C)NC(=O)[C@H](CC(C)C)NC(=O)[C@H](CCCNC(=N)N)NC(=O)[C@H](CCC(N)=O)NC(=O)[C@@H](NC(=O)[C@H](C)NC(=O)[C@@H]1CSSC[C@H](NC(=O)[C@H](CCCNC(=N)N)NC(=O)CC[C@H](NC(=O)CCCCCCCCCCCCCCCCCCC(=O)O)C(=O)O)C(=O)N[C@@H](CC(N)=O)C(=O)N[C@@H]([C@@H](C)O)C(=O)N[C@@H](C)C(=O)N[C@@H]([C@@H](C)O)C(=O)N1)[C@@H](C)O)C(C)C)C(=O)N[C@@H](CC(C)C)C(=O)N1CCC[C@H]1C(=O)N1CCC[C@H]1C(=O)N[C@H](C(=O)N[C@@H](CC(N)=O)C(=O)N[C@H](C(=O)NCC(=O)N[C@@H](CO)C(=O)N[C@@H](CC(N)=O)C(=O)N[C@H](C(=O)N[C@@H](Cc1ccc(O)cc1)C(N)=O)[C@@H](C)O)C(C)C)[C@@H](C)O [Example 45, N-alpha-[(S)-4-carboxy-4-(19-carboxynonadecanoylamino)butyryl]-[Arg1]-pramlintide (1-37)] ({C20 diacid-γGlu}-RCNTATCATQRLANFLVHSSNNFGPILPPTNVGSNTY-NH2; disulfide 2-7; C-terminus assumed)
6 | 0.1 | CC[C@H](C)[C@H](NC(=O)[C@@H]1CCCN1C(=O)CNC(=O)[C@H](Cc1ccccc1)NC(=O)[C@H](CC(N)=O)NC(=O)[C@H](CC(N)=O)NC(=O)[C@H](CO)NC(=O)[C@H](CO)NC(=O)[C@H](Cc1c[nH]cn1)NC(=O)[C@@H](NC(=O)[C@H](CC(C)C)NC(=O)[C@H](Cc1ccccc1)NC(=O)[C@H](CC(N)=O)NC(=O)[C@H](C)NC(=O)[C@H](CC(C)C)NC(=O)[C@H](CCCNC(=N)N)NC(=O)[C@H](CCC(N)=O)NC(=O)[C@@H](NC(=O)[C@H](C)NC(=O)[C@@H]1CSSC[C@H](NC(=O)[C@H](CCCNC(=N)N)NC(=O)[C@H](CCCNC(=N)N)NC(=O)CC[C@H](NC(=O)CCCCCCCCCCCCCCCCCCC(=O)O)C(=O)O)C(=O)N[C@@H](CC(N)=O)C(=O)N[C@@H]([C@@H](C)O)C(=O)N[C@@H](C)C(=O)N[C@@H]([C@@H](C)O)C(=O)N1)[C@@H](C)O)C(C)C)C(=O)N[C@@H](CC(C)C)C(=O)N1CCC[C@H]1C(=O)N1CCC[C@H]1C(=O)N[C@H](C(=O)N[C@@H](CC(N)=O)C(=O)N[C@H](C(=O)NCC(=O)N[C@@H](CO)C(=O)N[C@@H](CC(N)=O)C(=O)N[C@H](C(=O)N[C@@H](Cc1ccc(O)cc1)C(N)=O)[C@@H](C)O)C(C)C)[C@@H](C)O [Example 47, N-alpha-[(S)-4-carboxy-4-(19-carboxynonadecanoylamino)butyryl]-Arg-[Arg1]-pramlintide (1-37)] ({C20 diacid-γGlu}-RRCNTATCATQRLANFLVHSSNNFGPILPPTNVGSNTY-NH2; disulfide 3-8; C-terminus assumed)
